Assay results: patent publication US12102651B1, “Solvent-based method for making nanocomposite pharmaceutical material” (Imam Abdulrahman Bin Faisal University, priority 2022, dated 2024)

Experiments:
[1] = system: HCT-116 cells; test: Apoptotic DAPI staining assay on HCT-116 cells; format: cell-based, human; conditions: HCT-116, 25 μg/ml, 48-hour treatment
Excerpt: DAPI is a fluorescent dye used to distinguish between live and dead cells. In live cells, the dye pass through a membrane less effectively. Therefore, the DAPI staining assay is an effective marker to identify the cell viability based on the cell structural changes. The morphology changes of cancer nuclear structure due to treatments of MSS, 1 wt. % Ag/MSS, 2 wt. % Ag/MSS, 4 wt. % Ag/MSS, 6 wt. % Ag/MSS, Ag-silicalite, and CP were examined by the DAPI staining assay. Cells were divided into two groups such as a control group and an experimental group. The control group was without nano formulation and CP treatments. In the experimental group, 1 wt. % Ag/MSS, 2 wt. % Ag/MSS, 4 wt. % Ag/MSS, 6 wt. % Ag/MSS, Ag-silicalite, and CP (25 μg/ml) were added.
Post 48-hour treatment, the control and experimental groups were exposed to ice-cold (4%) paraformaldehyde and further with Triton X-100 in the PBS solution. The cells were stained with DAPI (1.0 μg/ml) for 5 minutes under a dark environment, and the cells were finally washed with the PBS solution and cover slipped. A deoxyribonucleic acid (DNA) staining was examined by using confocal scanning microscope (Zeiss, Germany). The data presented as mean (±) standard deviation (SD) obtained from triplicates and one-way ANOVA followed by Dennett's post hoc test with GraphPad Prism Software (GraphPad Software, USA) for final statistical analysis.

[2] = system: human colorectal carcinoma (HCT-116) cells; test: MTT cell viability assay on HCT-116 cells; format: cell-based
Description: (§1) Two cancer cell lines, namely, HCT-116 and HeLa were considered to study the impact of samples (medicinal nanocomposite) on viability and proliferation of such cell lines. A non-cancer cell line, embryonic kidney cells (HEK-293), was considered as a control cell line. HCT-116, HeLa and HEK-293 are collectively referred to as ‘the cells’ or individually as ‘the cell’ unless otherwise specified. The cells were cultured and maintained in the Dulbecco's Modified Eagle Media (DMEM), L-glutamine (5%), penicillin (1%), streptomycin (1%), Fetal bovine serum (FBS) (10%), and selenium chloride (1%). The cells were grown in 96 well plates in a 5% CO2 incubator (Thermo Fisher Scientific, Inc., Waltham, MA, USA) at 37° C., and 75-80% confluence cells and the cells processed for further assay.
A MTT assay is a colorimetric assay for measuring cell metabolic activity. […]
In control and nano formulation treated cells, MTT (5 mg/ml) was added, and the cells were further incubated in a CO2 incubator for 4 hours. Further, the cell culture media was replaced with dimethyl sulfoxide (DMSO) (1%), and the 96-well plate was further examined under an enzyme-linked immunoassay (ELISA) plate reader (Biotek Instruments, USA) at a wavelength of 570 nm. The percentage of cell viability was calculated for a statistical analysis. […]

[3] = system: human cervical cancer (HeLa) cells; test: MTT cell viability assay on HeLa cells; format: cell-based; conditions: for effect on HeLa cell viability, growth and proliferation (in words): 48 hours, 5.0 to 50 μg/ml
Description: as §1
A MTT assay is a colorimetric assay for measuring cell metabolic activity. The MTT assay is based on the ability of nicotinamide adenine dinucleotide phosphate (NADPH)-dependent cellular oxidoreductase enzymes to reduce the tetrazolium dye MTT to insoluble formazan, which has a purple colour. […] In control group, MSS, 1 wt. % Ag/MSS, 2 wt. % Ag/MSS, 4 wt. % Ag/MSS, 6 wt. % Ag/MSS, Ag-silicalite, and CP were […] and after 48 hours, the cells were incubated in MTT (Sigma-Aldrich, St. Louis, MO, USA) for 4 hours.
In control and nano formulation treated cells, MTT (5 mg/ml) was added, and the cells were further incubated in a CO2 incubator for 4 hours. Further, the cell culture media was replaced with dimethyl sulfoxide (DMSO) (1%), and the 96-well plate was further examined under an enzyme-linked immunoassay (ELISA) plate reader (Biotek Instruments, USA) at a wavelength of 570 nm. The percentage of cell viability was calculated for a statistical analysis. ANOVA were used to analyze the data. All the analysis was run on GraphPad Prism software. P value less than 0.05 was taken as significant difference in results.

[4] = system: Pseudomonas aeruginosa ATCC27853; test: Broth dilution MIC/MBC against Pseudomonas aeruginosa; format: cell-based; conditions: P. aeruginosa, 24 h, 37° C.
Description: (§2) Bacterial strains of Pseudomonas aeruginosa ATCC27853 (gram-negative) and Staphylococcus aureus ATCC25923 (gram-positive) were subjected to antibacterial studies. The bacteria were sub-cultured and maintained on Mueller Hinton Agar (MHA). A stock solution of the nanomaterial (8 mg/ml) was sonicated for 10 minutes in Mueller Hinton Broth (MHB) to obtain a homogenized solution for an antibacterial assay. Inoculum was prepared by adjusting the cell number to 1.5×10^8 colony forming unit per milliliter (CFU per ml) by using freshly grown strains, grown overnight at 37° C. […] About 100 μL of adjusted inoculum was inoculated into each tube and were further incubated for 24 h (at 37° C.) with agitation of 120 rotations per minute (rpm). A control tube of bacteria, also referred as control, had no nanomaterial. 10 μL extracted from the tubes were put on prepared MHA plates and further incubated at the same conditions. After the completion of incubation duration, the MHA plates were recorded for MIC and MBC values. MIC was taken as the lowest concentration of nanomaterial that inhibited 90% of the bacterial growth. However, MBC was recorded as the lowest concentration that killed the bacterial cells or had CFU less than three. […]

[5] = system: Staphylococcus aureus ATCC25923; test: Broth dilution MIC/MBC against Staphylococcus aureus; format: cell-based; conditions: S. aureus, 24 h, 37° C.
Description: as §2

Compound | number of DAPI stained colon cancer cells versus control (in words) [1] | effect on HCT-116 cell viability, growth and proliferation (in words) ([2]; 48 hours, 5.0 to 50 μg/ml) | inhibitory concentration (IC50) ([2]; HCT-116 cells, 48 hours treatment) [µg/mL] | effect on HeLa cell viability, growth and proliferation (in words) [3] | effect on HeLa cell viability, growth and proliferation (in words) ([3]; listed as cisplatin) | inhibitory concentration (IC50) ([3]; HeLa cells, 48 hours treatment) [µg/mL] | antibacterial activity, MIC/MBC (in words) [4] | antibacterial activity, MIC/MBC (in words) [5]
N.N.[Cl][Pt][Cl] [CP, cisplatin] | significant decrease in the number of colon cancer cells | dose-dependent inhibitory action | 13 | dose-dependent inhibitory action | significant decrease | 13 | – | –
O=[N+]([O-])[O-].[Ag+] [AgNO3, Silver nitrate] | – | – | – | – | – | – | showed effectiveness | showed effectiveness
